Laboratory results as given in patent US20080227780A1, “SOLUBLE EPOXIDE HYDROLASE INHIBITORS” (Arete Therapeutics, Inc., priority 2007, published 2008).

The compounds below were run on soluble epoxide hydrolase (sEH) (assay: Fluorescent assay for soluble epoxide hydrolase (CMNPC substrate), percent inhibition at the recited concentration). Settings: Inhibition Conc. 50 nM.
Assay type: biochemical
Source text: Fluorescent Assay for Mouse and Human Soluble Epoxide Hydrolase Recombinant mouse sEH (MsEH) and human sEH (HsEH) were produced in a baculovirus expression system as previously reported. Grant et al., J. Biol. Chem., 268:17628-17633 (1993); Beetham et al., Arch. Biochem. Biophys., 305:197-201 (1993). The expressed proteins were purified from cell lysate by affinity chromatography. Wixtrom et al., Anal. Biochem., 169:71-80 (1988). Protein concentration was quantified using the Pierce BCA assay using bovine serum albumin as the calibrating standard. The preparations were at least 97% pure as judged by SDS-PAGE and scanning densitometry. They contained no detectable esterase or glutathione transferase activity which can interfere with the assay. The assay was also evaluated with similar results in crude cell lysates or homogenate of tissues. The IC50s for each inhibitor were determined according to the following procedure: […] Jones P. D. et al.; Analytical Biochemistry 2005; 343: pp. 66-75) Bis/Tris HCl 25 mM pH 7.0 containing 0.1 mg/mL of BSA (buffer […] at 0.25 mM in DMSO. Mother solution of enzyme in buffer A (Mouse sEH at 6 μg/mL and Human sEH at 5 μg/mL). Inhibitor dissolved in DMSO at the appropriate concentration. In a black 96 well plate, fill all the wells with 150 μL of buffer A. Add 2 μL of DMSO in well A2 and A3, and then add 2 μL of inhibitor solution in A1 and A4 through A12. Add 150 μL of buffer A in row A, then mix several time and transfer 150 μL to row B. Repeat this operation up to row H. The 150 μL removed from row H is discarded. Add 20 μL of buffer A in column 1 and 2, then add 20 μL of enzyme solution to column 3 to 12. Incubate the plate for 5 minutes in the plate reader at 30° C. During incubation prepare the working solution of substrate by mixing 3.68 mL of buffer A (4×0.920 mL) with 266 μL (2×133 μL) of substrate solution). At t=0, add 30 μL of working substrate solution with multi-channel pipette labeled “Briggs 303” and start the reading ([S]final: 5 μM). Read with ex: 330 nm (20 nm) and em: 465 nm (20 nm) every 30 second for 10 minutes. The velocities are used to analyze and calculate the IC50s. Tables 1-7 above provide the percent inhibition of the enzyme when tested at the concentration recited therein.

SMILES	% inh. [%]
COc1ccc(S(=O)(=O)N2CCC(NC(=O)NC34CC5CC(CC(C5)C3)C4)CC2)cc1 [Compound 7-1, 1-(1-adamantyl)-3-(1-(4-methoxyphenylsulfonyl)-piperidin-4-yl)urea]	99
O=C(Nc1ccc(OC(F)(F)F)cc1)NC1CCN(C(=O)c2ccccn2)CC1 [Compound 7-2, 1-(1-picolinoylpiperidin-4-yl)-3-(4-(trifluoro-methoxy)phenyl)urea]	98
Cc1nc(C(=O)N2CCC(NC(=O)NC34CC5CC(CC(C5)C3)C4)CC2)c(C)o1 [Compound 7-8, 1-(1-adamantyl)-3-(1-(2,5-dimethyloxazole-4-carbonyl)piperidin-4-yl)urea]	89
CC(C)(C)OC(=O)N1CCC(NC(=O)Nc2ccc(Oc3ccccc3)cc2)CC1 [Compound 7-9, tert-butyl 4-(3-(4-phenoxyphenyl)ureido)-piperidine-1-carboxylate]	92
CCCOc1ccc(NC(=O)NC2CCN(C(=O)OC(C)(C)C)CC2)cc1 [Compound 7-10, tert-butyl 4-(3-(4-propoxyphenyl)ureido)-piperidine-1-carboxylate]	80
COC(=O)N1CCC(NC(=O)Nc2ccc(C(F)(F)F)cc2)CC1 [Compound 7-14, methyl 4-(3-(4-(trifluoromethyl)phenyl)ureido)piperidine-1-carboxylate]	92
CCOC(=O)N1CCC(NC(=O)Nc2ccc(C(F)(F)F)cc2)CC1 [Compound 7-15, ethyl 4-(3-(4-(trifluoromethyl)phenyl)ureido)piperidine-1-carboxylate]	93
O=C(Nc1ccc(C(F)(F)F)cc1)NC1CCN(C(=O)Nc2ccc(C(F)(F)F)cc2)CC1 [Compound 7-16, N-(4-(trifluoromethyl)phenyl)-4-(3-(4-(trifluoro-methyl)phenyl)ureido)-piperidine-1-carboxamide]	98
CC(C)(C)C(=O)N1CCC(NC(=O)Nc2ccc(OC(F)(F)F)cc2)CC1 [Compound 7-19, 1-(1-pivaloylpiperidin-4-yl)-3-(4-(trifluoro-methoxy)phenyl)urea]	97
CC(C)OC(=O)N1CCC(NC(=O)Nc2ccc(C(F)(F)F)cc2)CC1 [Compound 7-20, isopropyl 4-(3-(4-(trifluoromethyl)phenyl)ureido)piperidine-1-carboxylate]	95
CN(C)C(=O)N1CCC(NC(=O)Nc2ccc(C(F)(F)F)cc2)CC1 [Compound 7-21, N,N-dimethyl-4-(3-(4-(trifluoromethyl)phenyl)-ureido)piperidine-1-carboxamide]	86
CC(C)OC(=O)N1CCC(NC(=O)Nc2ccc(OC(F)(F)F)cc2)CC1 [Compound 7-22, isopropyl 4-(3-(4-(trifluoromethoxy)phenyl)ureido)piperidine-1-carboxylate]	99
CC(C)OC(=O)N1CCC(NC(=O)NC23CC4CC(CC(C4)C2)C3)CC1 [Compound 7-23, isopropyl 4-(3-(1-adamantyl)ureido)piperidine-1-carboxylate]	93
O=C(NC1CCN(S(=O)(=O)c2ccc(-c3ccccc3)cc2)CC1)NC12CC3CC(CC(C3)C1)C2 [Compound 7-24, 1-(1-(biphenyl-4-ylsulfonyl)piperidin-4-yl)-3-adamantylurea]	96
O=C(NC1CCN(S(=O)(=O)c2ccc3ccccc3c2)CC1)NC12CC3CC(CC(C3)C1)C2 [Compound 7-25, 1-adamantyl-3-(1-(naphthalen-2-ylsulfonyl)piperidin-4-yl)urea]	99
O=C(NC1CCN(S(=O)(=O)c2ccccc2)CC1)NC12CC3CC(CC(C3)C1)C2 [Compound 7-26, 1-adamantyl-3-(1-(phenylsulfonyl)piperidin-4-yl)urea]	97
O=C(NC1CCN(S(=O)(=O)c2ccc(Cl)cc2)CC1)NC12CC3CC(CC(C3)C1)C2 [Compound 7-27]	95
O=C(NC1CCN(S(=O)(=O)c2cccs2)CC1)NC12CC3CC(CC(C3)C1)C2 [Compound 7-28, 1-adamantyl-3-(1-(thiophen-2-ylsulfonyl)piperidin-4-yl)urea]	94
O=C(NC1CCN(S(=O)(=O)Cc2ccccc2)CC1)NC12CC3CC(CC(C3)C1)C2 [Compound 7-29, 1-(1-(benzylsulfonyl)piperidin-4-yl)-3-adamantylurea]	93
CC(C)(C)c1ccc(S(=O)(=O)N2CCC(NC(=O)NC34CC5CC(CC(C5)C3)C4)CC2)cc1 [Compound 7-30, 1-(1-(4-tert-butylphenylsulfonyl)piperidin-4-yl)-3-adamantylurea]	97
O=C(NC1CCN(S(=O)(=O)c2ccccc2C(F)(F)F)CC1)NC12CC3CC(CC(C3)C1)C2 [Compound 7-32, 1-adamantyl-3-(1-(2-(trifluoromethyl)phenylsulfonyl)piperidin-4-yl)urea]	97
Cc1ccccc1S(=O)(=O)N1CCC(NC(=O)NC23CC4CC(CC(C4)C2)C3)CC1 [Compound 7-33, 1-adamantyl-3-(1-(o-tolylsulfonyl)piperidin-4-yl)urea]	99
Cc1c(Cl)cccc1S(=O)(=O)N1CCC(NC(=O)NC23CC4CC(CC(C4)C2)C3)CC1 [Compound 7-34, 1-(1-(3-chloro-2-methylphenylsulfonyl)piperidin-4-yl)-3-adamantylurea]	91
Cc1cccc(Cl)c1S(=O)(=O)N1CCC(NC(=O)NC23CC4CC(CC(C4)C2)C3)CC1 [Compound 7-35, 1-(1-(2-chloro-6-methylphenylsulfonyl)piperidin-4-yl)-3-adamantylurea]	98

The remaining lines, values ahead:

% inh. [%]	SMILES
72	CCC1CCC(NC(=O)NC2CCN(C(C)=O)CC2)CC1 (centres unmarked) [Compound 7-4, 1-(1-acetylpiperidin-4-yl)-3-(4-ethylcyclohexyl)urea]
93	CC(=O)N1CCC(NC(=O)NC2CCC3CCCCC3C2)CC1 (centres unmarked) [Compound 7-5, 1-(1-acetylpiperidin-4-yl)-3-(decahydronaphthalen-2-yl)urea]
70	CC(=O)N1CCC(NC(=O)NC2CCC(C)(C)CC2)CC1 [Compound 7-6, 1-(1-acetylpiperidin-4-yl)-3-(4,4-dimethylcyclo-hexyl)urea]
88	CC(=O)N1CCC(NC(=O)NC2CC3CCC2C3)CC1 (centres unmarked) [Compound 7-7, 1-(1-acetylpiperidin-4-yl)-3-(bicyclo[2.2.1]heptan-2-yl)urea]
91	CC(C)(C)C(=O)N1CCC(NC(=O)NC23CC4CC(CC(C4)C2)C3)CC1 [Compound 7-13, 1-(1-adamantyl)-3-(1-pivaloylpiperidin-4-yl)urea]

Same assay, conditions: Inhibition Conc. 200 nM

% inh. [%]	SMILES
87	COC(=O)c1ccc(NC(=O)NC2CCN(C(=O)OC(C)(C)C)CC2)s1 [Compound 6-17, tert-butyl 4-(3-(5-(methoxycarbonyl)thiophen-2-yl)ureido)piperidine-1-carboxylate]

Same assay, conditions: Inhibition Conc. 500 nM

% inh. [%]	SMILES
86	CC(=O)N1CCC(NC(=O)NC2CCC(C(C)(C)C)CC2)CC1 (centres unmarked) [Compound 7-3, 1-(1-acetylpiperidin-4-yl)-3-(4-tert-butylcyclohexyl)urea]
95	CC(=O)N1CCC(NC(=O)Nc2ccc(Oc3ccccc3)cc2)CC1 [Compound 7-12, 1-(1-acetylpiperidin-4-yl)-3-(4-phenoxyphenyl)urea]
85	CC(C)(C)OC(=O)N1CCC(NC(=O)NC2CCCC2)CC1 [Compound 7-17, tert-butyl 4-(3-cyclopentylureido)-piperidine-1-carboxylate]

Same assay, conditions: Inhibition Conc. 2000 nM

% inh. [%]	SMILES
78	COC(=O)c1ccc(NC(=O)NC2CCN(C(C)=O)CC2)s1 [Compound 6-16, methyl 5-(3-(1-acetylpiperidin-4-yl)ureido)thiophene-2-carboxylate]
89	COC(=O)c1ccc(NC(=O)NC2CCN(C(=O)OC(C)(C)C)CC2)o1 [Compound 6-18, tert-butyl 4-(3-(5-(methoxycarbonyl)furan-2-yl)ureido)piperidine-1-carboxylate]
87	CC(=O)N1CCC(NC(=O)Nc2ccc3c(c2)OCCO3)CC1 [Compound 6-19, 1-(1-acetylpiperidin-4-yl)-3-(2,3-dihydrobenzo[b][1,4]dioxin-6-yl)urea]

Same assay, conditions: Inhibition Conc. 5000 nM

% inh. [%]	SMILES
94	CCCOc1ccc(NC(=O)NC2CCN(C(C)=O)CC2)cc1 [Compound 7-11, 1-(1-acetylpiperidin-4-yl)-3-(4-propoxyphenyl)urea]
74	CC(=O)N1CCC(NC(=O)NC2CCCC2)CC1 [Compound 7-18, 1-(1-acetylpiperidin-4-yl)-3-cyclopentylurea]
